Literature values as cited in patent US11878022B2 (Novitium Pharma LLC, priority 2020, dated 2024).

What was measured:
[1] = in vivo
[2] = in vivo; remark: listed apart in the source

Binding to serum proteins [2]: 40-68%
absorbed dose excreted in urine as unchanged drug ([2]; po): greater than 95%
Compound: NS(=O)(=O)c1cc2c(cc1Cl)NCNS2(=O)=O [Hydrochlorothiazide, 6-Chloro-3,4-dihydro-2H-1,2,4-benzothiadiazine-7-sulfonamide-1,1-dioxide]
Onset of action after dosing [1]: ≤ 2 h
persistence of activity [1]: up to 24 hours
time of peak effect [1]: about 4 hours
